Assay results taken from ChEMBL document CHEMBL1155023, “C-geranylated chalcones from the stems of Angelica keiskei with superoxide-scavenging activity” (J Nat Prod, 2008).

Test: Superoxide-scavenging activity assessed as inhibition of formation of WST1 formazan

Q: For `C=C(C)C(O)CCC(C)(O)[C@H]1Oc2ccc(C(=O)/C=C/c3ccc(O)cc3)c(O)c2[C@@H]1O` (relative stereo) [XANTHOKEISMINS C], which IC50 is on record?
A: 1.1 µM

Q: With `O=C1O[C@H]([C@@H](O)CO)C(O)=C1O` [ASCORBIC ACID] as the compound, how does the IC50 read?
A: > 40 µM

Q: For `CC(C)=CCC/C(C)=C/CC/C(C)=C/CO` [FARNESOL], which IC50 is on record?
A: > 40 µM

Q: With `O=C(/C=C/c1ccc(O)cc1)c1ccc(O)cc1O` [ISOLIQUIRITIGENIN] as the compound, how does the IC50 read?
A: 15 µM

Q: Which IC50 does the source give for `Oc1ccc(/C=C/c2cc(O)cc(O)c2)cc1` [RESVERATROL] here?
A: 5.3 µM

Q: With `C=C(C)C(O)CC/C(C)=C/Cc1c(O)ccc(C(=O)/C=C/c2ccc(O)cc2)c1O` (centres undefined) [XANTHOANGELOL B] as the compound, how does the IC50 read?
A: 0.92 µM

Q: Which IC50 does the source give for `CC(C)=CCC/C(C)=C/Cc1c(O)ccc(C(=O)/C=C/c2ccc(O)cc2)c1O` [XANTHOANGELOL] here?
A: > 40 µM

Q: For `C/C(=C\Cc1c(O)ccc(C(=O)/C=C/c2ccc(O)cc2)c1O)C/C=C/C(C)(C)O` [XANTHOKEISMINS A], which IC50 is on record?
A: 0.51 µM

Q: Which IC50 does the source give for `CC(C)(O)/C=C/CC(C)(O)[C@H]1Oc2ccc(C(=O)/C=C/c3ccc(O)cc3)c(O)c2[C@@H]1O` (some centres undefined) [XANTHOKEISMINS B] here?
A: 0.69 µM
